From PMC5846083 (Journal of Medicinal Chemistry, 2018)
pIC50: −log10 of the molar value. Blank lines part the entries; values can stand above or below the compound they belong to.

What was measured:
Na,K-ATPase α4 = Na,K-ATPase α4 (Rattus norvegicus, UniProt Q64541); assay: Inhibition of Na,K-ATPase α4 activity; type: biochemical; settings: for reduced activity compared to ouabain: Na,K-ATPase α4 inhibition; for loss of Na,K-ATPase α4 inhibitory activity versus comparator: 29 versus 32, 19 versus 25; for IC50 for Na,K-ATPase α4 inhibition (Figure 1): recombinant rat α4, mean of two experiments in quadruplicate
rat sperm [1] = assay: Rat sperm motility in vitro; type: cell-based; settings: for maximum reduction of sperm motility: even at high concentrations
hERG = hERG (Homo sapiens, UniProt Q12809); assay: hERG competitive displacement fluorescence polarization assay
rat sperm [2] = assay: Sperm membrane potential; type: cell-based; settings: 10^–8 M, 1 h
rat sperm [3] = assay: Sperm intracellular pH, SNARF-1; type: cell-based; settings: 10^–8 M, 1 h
rat sperm [4] = assay: Sperm intracellular Ca2+, Calcium Green; type: cell-based; settings: 10^–8 M, 1 h
[5] = General toxicity in treated rats; type: in vivo, rat; settings: oral gavage, 5–20 mg/kg
rat sperm [6] = assay: Sperm hyperactivated motility under capacitating conditions; settings: 10^–8 M, 1 h, capacitating medium
human Na,K-ATPase α4 = settings: human isoforms; cited from earlier work

Chain of Na,K-ATPase α4 (Q64541 whole entry, other chains not shown): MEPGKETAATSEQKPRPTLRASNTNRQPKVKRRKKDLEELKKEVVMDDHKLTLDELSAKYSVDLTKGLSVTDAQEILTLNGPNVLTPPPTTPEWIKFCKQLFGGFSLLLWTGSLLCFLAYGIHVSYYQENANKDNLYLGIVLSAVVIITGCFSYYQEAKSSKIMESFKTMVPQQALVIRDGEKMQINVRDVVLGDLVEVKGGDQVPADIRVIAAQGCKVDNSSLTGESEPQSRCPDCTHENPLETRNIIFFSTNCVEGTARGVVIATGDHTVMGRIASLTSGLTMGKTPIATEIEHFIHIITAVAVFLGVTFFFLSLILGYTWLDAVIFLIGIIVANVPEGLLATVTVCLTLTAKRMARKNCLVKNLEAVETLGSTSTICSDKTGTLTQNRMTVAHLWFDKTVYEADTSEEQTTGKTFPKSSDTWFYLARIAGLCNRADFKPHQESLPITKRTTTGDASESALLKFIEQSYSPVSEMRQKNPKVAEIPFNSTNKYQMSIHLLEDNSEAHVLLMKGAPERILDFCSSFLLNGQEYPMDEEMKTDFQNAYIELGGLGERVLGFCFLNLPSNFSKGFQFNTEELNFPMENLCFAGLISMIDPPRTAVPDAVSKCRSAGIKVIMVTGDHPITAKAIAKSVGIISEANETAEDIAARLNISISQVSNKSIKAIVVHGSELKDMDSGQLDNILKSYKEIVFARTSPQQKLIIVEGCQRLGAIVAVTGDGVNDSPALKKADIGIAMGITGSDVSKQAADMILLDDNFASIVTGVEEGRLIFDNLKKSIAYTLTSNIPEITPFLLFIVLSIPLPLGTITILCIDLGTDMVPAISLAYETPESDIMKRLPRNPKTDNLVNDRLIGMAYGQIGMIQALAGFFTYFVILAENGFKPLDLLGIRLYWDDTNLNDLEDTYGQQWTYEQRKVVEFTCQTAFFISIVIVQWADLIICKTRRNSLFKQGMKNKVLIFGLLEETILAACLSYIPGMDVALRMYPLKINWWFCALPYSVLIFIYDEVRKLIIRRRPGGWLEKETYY
Chain of hERG (Q12809 whole entry): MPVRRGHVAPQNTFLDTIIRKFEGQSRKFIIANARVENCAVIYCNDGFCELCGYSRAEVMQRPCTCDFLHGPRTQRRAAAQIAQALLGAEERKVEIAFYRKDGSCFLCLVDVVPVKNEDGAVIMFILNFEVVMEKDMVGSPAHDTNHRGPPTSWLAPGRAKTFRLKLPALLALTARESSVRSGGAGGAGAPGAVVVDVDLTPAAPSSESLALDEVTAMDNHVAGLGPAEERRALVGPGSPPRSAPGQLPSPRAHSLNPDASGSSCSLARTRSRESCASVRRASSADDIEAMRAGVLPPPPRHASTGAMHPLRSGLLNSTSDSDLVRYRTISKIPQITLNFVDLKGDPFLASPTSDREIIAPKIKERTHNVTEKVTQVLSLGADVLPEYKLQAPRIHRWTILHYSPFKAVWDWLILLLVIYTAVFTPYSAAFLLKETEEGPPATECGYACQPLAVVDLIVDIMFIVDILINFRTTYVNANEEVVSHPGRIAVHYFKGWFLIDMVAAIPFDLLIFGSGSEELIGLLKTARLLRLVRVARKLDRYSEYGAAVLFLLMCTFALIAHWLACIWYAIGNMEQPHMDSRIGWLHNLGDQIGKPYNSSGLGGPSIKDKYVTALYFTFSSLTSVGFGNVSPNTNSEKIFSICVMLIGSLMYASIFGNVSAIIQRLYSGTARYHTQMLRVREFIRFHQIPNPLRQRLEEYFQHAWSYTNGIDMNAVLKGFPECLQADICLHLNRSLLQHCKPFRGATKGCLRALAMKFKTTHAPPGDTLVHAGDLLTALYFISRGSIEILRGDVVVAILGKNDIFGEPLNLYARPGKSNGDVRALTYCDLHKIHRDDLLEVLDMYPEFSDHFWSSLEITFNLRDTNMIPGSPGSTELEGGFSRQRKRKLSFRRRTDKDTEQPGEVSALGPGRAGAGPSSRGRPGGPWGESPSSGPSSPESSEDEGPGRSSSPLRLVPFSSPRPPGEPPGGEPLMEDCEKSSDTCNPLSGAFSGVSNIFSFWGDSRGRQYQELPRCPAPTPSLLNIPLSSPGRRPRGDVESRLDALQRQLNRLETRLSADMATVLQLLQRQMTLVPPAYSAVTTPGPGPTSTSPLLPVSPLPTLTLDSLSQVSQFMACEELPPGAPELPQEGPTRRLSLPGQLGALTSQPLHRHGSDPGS

Structure (SMILES): C[C@]12C[C@@H](O)[C@H]3[C@@H](CC[C@]4(O)C[C@@H](O)C[C@@H](O)[C@]34CO)[C@@]1(O)CCC2c1cn(Cc2ccc(F)cc2)nn1 (mixture of isomers) [Compound 27, (1R,3S,5S,8R,9S,10R,11R,13R,14S,17S)-17-(1-(4-Fluorobenzyl)-1H-1,2,3-triazol-4-yl)-10-(hydroxymethyl)-13-methyltetradecahydro-5H-cyclopenta[a]phenanthrene-1,3,5,11,14(2H)-pentaol]
- pIC50 (Na,K-ATPase α4): 7.52

Structure (SMILES): COCO[C@@H]1[C@H]2OC(C)(C)O[C@H]2[C@H](O[C@H]2C[C@H]3OC(C)(C)OC[C@]34[C@@H]3[C@@H](CC[C@]4(O)C2)[C@@]2(O)CC[C@H](CO)[C@@]2(C)C[C@H]3OCOC)O[C@H]1C [Compound 10, (3S,3aR,5R,5aS,5bR,9aR,11S,12aS,14aR,14bS)-3-(Hydroxymethyl)-5-(methoxymethoxy)-11-(((3aR,4R,6S,7S,7aR)-7-(methoxymethoxy)-2,2,6-trimethyltetrahydro-4H-[1,3]dioxolo[4,5-c]pyran-4-yl)oxy)-3a,8,8-trimethyltetradecahydro-6H-cyclopenta[7,8]phenanthro[4,4a-d][1,3]dioxine-12a,14b-diol]
- effect on other parameters of sperm movement (progressive motility, velocities, linearity, beat cross frequency) (rat sperm [1]; 1 h incubation): directly block all parameters of sperm movement
- maximum reduction of sperm motility (rat sperm [1]): 50–60%
- pIC50 (hERG): < 4.22

Structure (SMILES): COCO[C@@H]1[C@H]2OC(C)(C)O[C@H]2[C@H](O[C@H]2C[C@H]3OC(C)(C)OC[C@]34[C@@H]3[C@@H](CC[C@]4(O)C2)[C@@]2(O)CC[C@H](C#N)[C@@]2(C)C[C@H]3OCOC)O[C@H]1C [Compound 11, (3S,3aR,5R,5aS,5bR,9aR,11S,12aS,14aR,14bS)-12a,14b-Dihydroxy-5-(methoxymethoxy)-11-(((3aR,4R,6S,7S,7aR)-7-(methoxymethoxy)-2,2,6-trimethyltetrahydro-4H-[1,3]dioxolo[4,5-c]pyran-4-yl)oxy)-3a,8,8-trimethylhexadecahydro-6H-cyclopenta[7,8]phenanthro[4,4a-d][1,3]dioxine-3-carbonitrile]
- reduced activity compared to ouabain (Na,K-ATPase α4): about 10 fold

Structure (SMILES): COCO[C@H]1C[C@H]2OC(C)(C)OC[C@]23[C@@H]2[C@@H](CC[C@]3(O)C1)[C@@]1(OCOC)CC[C@H](CO)[C@@]1(C)C[C@H]2OCOC [Compound 17, (3S,3aR,5R,5aS,5bR,9aR,11S,12aS,14aR,14bS)-3-(Hydroxymethyl)-5,11,14b-tris(methoxymethoxy)-3a,8,8-trimethyltetradecahydro-6H-cyclopenta[7,8]phenanthro[4,4a-d][1,3]dioxin-12a(1H)-ol]
- effect on other parameters of sperm movement (progressive motility, velocities, linearity, beat cross frequency) (rat sperm [1]; 1 h incubation): directly block all parameters of sperm movement
- maximum reduction of sperm motility (rat sperm [1]): 50–60%
- pIC50 (hERG): < 4.22

Structure (SMILES): COc1ccc(-c2cn(C[C@H]3CC[C@]4(O)[C@@H]5CC[C@]6(O)C[C@@H](O)C[C@@H](O)[C@]6(CO)[C@H]5[C@H](O)C[C@]34C)nn2)cc1 [Compound 19, (1R,3S,5S,8R,9S,10R,11R,13R,14S,17S)-10-(Hydroxymethyl)-17-((4-(4-methoxyphenyl)-1H-1,2,3-triazol-1-yl)methyl)-13-methyltetradecahydro-5H-cyclopenta[a]phenanthrene-1,3,5,11,14(2H)-pentaol]
- loss of Na,K-ATPase α4 inhibitory activity versus comparator (Na,K-ATPase α4): 7 orders of magnitude

Structure (SMILES): C[C@]12C[C@@H](O)[C@H]3[C@@H](CC[C@]4(O)C[C@@H](O)C[C@@H](O)[C@]34CO)[C@@]1(O)CC[C@@H]2c1cn(Cc2ccccc2)nn1 [Compound 25, (1R,3S,5S,8R,9S,10R,11R,13R,14S,17S)-17-(1-Benzyl-1H-1,2,3-triazol-4-yl)-10-(hydroxymethyl)-13-methyltetradecahydro-5H-cyclopenta[a]phenanthrene-1,3,5,11,14(2H)-pentaol]
- decrease of total sperm motility (rat sperm [1]; 10^–8 M and higher, 1 h incubation): approximately 60%
- effect on other parameters of sperm movement (progressive motility, velocities, linearity, beat cross frequency) (rat sperm [1]; 1 h incubation): directly block all parameters of sperm movement
- maximum reduction of sperm motility (rat sperm [1]): 50–60%
- increase of sperm Vm (plasma membrane depolarization) (rat sperm [2]): approximately 40%
- effect on sperm intracellular pH (rat sperm [3]): caused intracellular sperm acidification
- increase of [Ca2+]i in sperm (rat sperm [4]): approximately 40%
- toxic effect on treated rats [5]: did not exert any major toxic effect
- reduction of hyperactivation accompanying sperm capacitation (rat sperm [6]): approximately 70%
- pIC50 (hERG): < 4.22

- loss of Na,K-ATPase α4 inhibitory activity versus comparator (Na,K-ATPase α4): 3 orders of magnitude
Structure (SMILES): COCO[C@H]1C[C@H]2OC(C)(C)OC[C@]23[C@@H]2[C@@H](CC[C@]3(O)C1)[C@@]1(OCOC)CC[C@H](C#N)[C@@]1(C)C[C@H]2OCOC [Compound 29, (3S,3aR,5R,5aS,5bR,9aR,11S,12aS,14aR,14bS)-12a-Hydroxy-5,11,14b-tris(methoxymethoxy)-3a,8,8-trimethylhexadecahydro-6H-cyclopenta[7,8]phenanthro[4,4a-d][1,3]dioxine-3-carbonitrile]

- reduced activity compared to ouabain (Na,K-ATPase α4): about 10 fold
Structure (SMILES): COCO[C@H]1C[C@H]2OC(C)(C)OC[C@]23[C@@H]2[C@@H](CC[C@]3(O)C1)[C@@]1(OCOC)CC[C@H](C(=O)O)[C@@]1(C)C[C@H]2OCOC [Compound 32, (3S,3aR,5R,5aS,5bR,9aR,11S,12aS,14aR,14bS)-12a-Hydroxy-5,11,14b-tris(methoxymethoxy)-3a,8,8-trimethylhexadecahydro-6H-cyclopenta[7,8]phenanthro[4,4a-d][1,3]dioxine-3-carboxylic Acid]

Structure (SMILES): CO[C@H]1C[C@H](O[C@H]2CC[C@]3(C=O)[C@H]4CC[C@]5(C)[C@@H](C6=CC(=O)OC6)CC[C@]5(O)[C@@H]4CC[C@]3(O)C2)O[C@H](C)[C@H]1O [cymarin, reference compound]
- IC50 for Na,K-ATPase α4 inhibition (Figure 1) (Na,K-ATPase α4): 10^–8 to 10^–9 M

Structure (SMILES): C[C@@H]1O[C@@H](O[C@H]2C[C@@H](O)[C@]3(CO)[C@H]4[C@H](O)C[C@]5(C)[C@@H](C6=CC(=O)OC6)CC[C@]5(O)[C@@H]4CC[C@]3(O)C2)[C@H](O)[C@H](O)[C@H]1O [ouabain]
- sensitivity to ouabain, human Na,K-ATPase α4 versus α1 (human Na,K-ATPase α4): ~100 fold

Structure (SMILES): C[C@]12CC[C@H]3[C@@H](CC[C@]4(O)C[C@@H](O)CC[C@]34C=O)[C@@]1(O)CC[C@@H]2C1=CC(=O)OC1 [strophanthidin, reference compound]
- IC50 for Na,K-ATPase α4 inhibition (Figure 1) (Na,K-ATPase α4): 10^–8 to 10^–9 M
